Consider seven compounds from patent publication US20250136559A1, “SMO MODULATOR COMPOUNDS” (OMASS THERAPEUTICS LIMITED, priority 2022, published 2025).

Common to all, as to assay type: cell-based
For one assay, the target named is T1, mouse SMO^WT (Mus musculus, UniProt P56726).
T1 construct: expressed in transfected cells
The experiment in a line: Mouse assay: Gli1 qPCR in MEF cells stably expressing mouse SMO WT. Particulars: mSHh-treated, 24 hours; for IC50: Gli1 inhibition by qPCR, read-out: Mouse WT pIC50 (converted); for Mouse WT % Inh: percentage Gli1 inhibition. The gist of the method:
(§1)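 MEFs stably expressing the SMO variant pre-treated with compound 1 h, then stimulated with mSHh and incubated 24 h at 37 °C. Gli1 mRNA quantified by one-step TaqMan qPCR with Gusb reference, four replicates per concentration; expressed as % Gli1 inhibition relative to mSHh-treated controls.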
For orientation: In qPCR the cycle at which signal appears reflects the starting amount.

In the next assay the target is T2, mouse SMO^D473H (Mus musculus, UniProt P56726, D477H).
T2 construct: expressed in transfected cells
T2 sequence (P56726 33-793 D477H): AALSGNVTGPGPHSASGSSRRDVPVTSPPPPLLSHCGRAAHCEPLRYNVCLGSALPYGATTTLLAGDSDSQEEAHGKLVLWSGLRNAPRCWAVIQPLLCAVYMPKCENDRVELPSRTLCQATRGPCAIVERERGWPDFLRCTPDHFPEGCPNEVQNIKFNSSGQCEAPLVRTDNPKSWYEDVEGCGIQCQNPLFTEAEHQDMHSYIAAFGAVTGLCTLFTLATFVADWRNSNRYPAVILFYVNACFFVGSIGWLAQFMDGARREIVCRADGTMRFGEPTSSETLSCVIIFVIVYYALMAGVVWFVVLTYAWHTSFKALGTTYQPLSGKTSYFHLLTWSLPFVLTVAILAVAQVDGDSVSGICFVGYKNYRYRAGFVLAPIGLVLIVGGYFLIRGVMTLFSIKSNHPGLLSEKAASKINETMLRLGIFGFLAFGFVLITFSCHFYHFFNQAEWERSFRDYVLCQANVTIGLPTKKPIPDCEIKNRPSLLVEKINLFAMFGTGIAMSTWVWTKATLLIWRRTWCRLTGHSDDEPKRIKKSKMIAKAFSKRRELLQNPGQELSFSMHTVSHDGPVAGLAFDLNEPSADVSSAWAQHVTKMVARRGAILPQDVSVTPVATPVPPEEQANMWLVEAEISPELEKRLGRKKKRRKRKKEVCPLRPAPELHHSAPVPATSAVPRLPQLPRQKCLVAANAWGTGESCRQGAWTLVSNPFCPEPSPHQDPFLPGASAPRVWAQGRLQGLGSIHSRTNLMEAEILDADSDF
Briefly: Mouse assay: Gli1 qPCR in MEF cells stably expressing mouse SMO D473H. The settings on record: mSHh-treated, 24 hours; for IC50: Gli1 inhibition by qPCR, read-out: Mouse D473H pIC50 (converted); for Mouse D473H % Inh: percentage Gli1 inhibition. The gist of the method:
as §1

The next assay has as its target T3, mouse SMO^W535L (Mus musculus, UniProt P56726, W539L).
T3 construct: expressed in transfected cells
The experiment in a line: Mouse assay: Gli1 qPCR in MEF cells stably expressing mouse SMO W535L. Particulars: mSHh-treated, 24 hours; for IC50: Gli1 inhibition by qPCR, read-out: Mouse W535L pIC50 (converted); for Mouse W535L % Inh: percentage Gli1 inhibition. The gist of the method: as §1

T3 sequence (P56726 33-793 W539L): as the sequence (P56726 33-793 D477H) above, with H445D, W507L counted along it
T1 sequence (P56726 33-793): as the sequence (P56726 33-793 D477H) above, with H445D counted along it

Turning to `CC(C)(C)c1n[nH]c(-c2ccc(NC(=O)c3cccc(CN4CCS(=O)(=O)CC4)c3)cc2)n1` [Example 3-2, N-[4-(5-tert-Butyl-1H-1,2,4-triazol-3-yl)phenyl]-3-[(1,1-dioxo-1,4-thiazinan-4-yl)methyl]benzamide], at mouse SMO^WT, the IC50 is 25.1 nM and the “Mouse WT % Inh” value was 97.3%. For the same compound, on mouse SMO^D473H, the IC50 was 501 nM and the “Mouse D473H % Inh” value is 91.0%. Also, on mouse SMO^W535L, the IC50 was 100 nM and the “Mouse W535L % Inh” value was determined as 41.6%.

With `O=C(Nc1ccc(-c2nc(Cc3ccc(F)cc3)n[nH]2)cc1)c1cccc(CN2CCS(=O)(=O)CC2)c1` [Example 3-21, 3-[(1,1-Dioxo-1,4-thiazinan-4-yl)methy]-N-[4-[3-[(4-fluorophenyl)methyl]-1H-1,2,4-triazol-5-yl]phenyl]benzamide], on mouse SMO^WT, the IC50 is 100 nM and the “Mouse WT % Inh” value came to 97.5%. Moreover, on mouse SMO^D473H, the IC50 was 794 nM and the “Mouse D473H % Inh” value is reported as 82.3%. Also, at mouse SMO^W535L, the IC50 is 501 nM and the “Mouse W535L % Inh” value stood at 64.1%.

Turning to `O=C(Nc1ccc(-c2noc(C3CCCC3)n2)cc1)c1cccc(CN2CCS(=O)(=O)CC2)c1` [Example 4-14, N-[4-(5-Cyclopentyl-1,2,4-oxadiazol-3-yl)phenyl]-3-[(1,1-dioxo-1,4-thiazinan-4-yl)methyl]benzamide], at mouse SMO^WT, the IC50 is 10 nM and the “Mouse WT % Inh” value was determined as 98.2%. At mouse SMO^D473H, the IC50 is 200 nM and the “Mouse D473H % Inh” value is given as 99.1%. At mouse SMO^W535L, the IC50 was 794 nM and the “Mouse W535L % Inh” value was 74.2%.

Take `Cl.O=C(Nc1ccc(-c2nc(C3CCC3)n[nH]2)cc1)c1cccc(CN2CCS(=O)(=O)CC2)c1` [Example 3-4, N-[4-(3-Cyclobutyl-1H-1,2,4-triazol-5-yl)phenyl]-3-[(1,1-dioxo-1,4-thiazinan-4-yl)methyl]benzamide]: at mouse SMO^WT, the IC50 was 25.1 nM and the “Mouse WT % Inh” value is 98.0%. On mouse SMO^D473H, the IC50 was 200 nM and the “Mouse D473H % Inh” value was 97.7%. On mouse SMO^W535L, the IC50 was 200 nM and the “Mouse W535L % Inh” value is 63.0%.

Turning to `O=C(Nc1ccc(-c2cnc(C3CC3)o2)cc1)c1cccc(CN2CCS(=O)(=O)CC2)c1` [Example 4-5, N-[4-(2-Cyclopropyl-1,3-oxazol-5-yl)phenyl]-3-[(1,1-dioxo-1,4-thiazinan-4-yl)methyl]benzamide], at mouse SMO^WT, the IC50 is 7.94 nM and the “Mouse WT % Inh” value turned out to be 99.9%. For the same compound, on mouse SMO^D473H, the IC50 is 100 nM and the “Mouse D473H % Inh” value came out at 99.7%. Further, on mouse SMO^W535L, the IC50 is 158 nM and the “Mouse W535L % Inh” value was found to be 63.2%.

For the compound `Cl.O=C(Nc1ccc(-c2nnc(C3CC3)o2)cc1)c1cccc(CN2CCS(=O)(=O)CC2)c1` [Example 4-8, N-[4-(5-Cyclopropyl-1,3,4-oxadiazol-2-yl)phenyl]-3-[(1,1-dioxo-1,4-thiazinan-4-yl)methyl]benzamide], at mouse SMO^WT, the IC50 was 79.4 nM and the “Mouse WT % Inh” value turned out to be 98.9%. Further, on mouse SMO^D473H, the IC50 was 794 nM and the “Mouse D473H % Inh” value was determined as 94.9%. Besides, on mouse SMO^W535L, the IC50 is 501 nM and the “Mouse W535L % Inh” value is 65.9%.

For the compound `O=C(Nc1ccc(-c2nc(Cc3ccc4c(c3)OCCO4)n[nH]2)cc1)c1cccc(CN2CCS(=O)(=O)CC2)c1` [Example 3-28, N-[4-[3-(2,3-Dihydro-1,4-benzodioxin-6-ylmethyl)-1H-1,2,4-triazol-5-yl]phenyl]-3-[(1,1-dioxo-1,4-thiazinan-4-yl)methyl]benzamide], at mouse SMO^WT, the IC50 is 79.4 nM and the “Mouse WT % Inh” value came out at 99.4%. Moreover, on mouse SMO^D473H, the IC50 is 794 nM and the “Mouse D473H % Inh” value is listed as 97.7%. Besides, on mouse SMO^W535L, the IC50 was 316 nM and the “Mouse W535L % Inh” value is 59.7%.
